Data from publication PMC5122408, “High throughput chemical library screening identifies a novel p110-δ inhibitor that potentiates the anti-myeloma effect of bortezomib” (Oncotarget, 2016).

What was measured:
SF-539 = assay: NCI-60 panel cell growth screen; assay type: cell-based, human; conditions: SF-539 (CNS Cancer)
[1] = tested on: Myeloma/ Leukemia/ Lymphoma; assay: NCI-60 panel cell growth screen (Figure 6); assay type: cell-based, human
SF-295 = assay: NCI-60 panel cell growth screen; assay type: cell-based, human; conditions: SF-295 (CNS Cancer)
U25 = assay: NCI-60 panel cell growth screen; assay type: cell-based, human; conditions: U25 (CNS Cancer)
SW-620 = assay: NCI-60 panel cell growth screen; assay type: cell-based, human; conditions: SW-620 (Colon cancer)
HCT-116 = assay: NCI-60 panel cell growth screen; assay type: cell-based, human; conditions: HCT-116 (Colon cancer)
NCI-H23 = assay: NCI-60 panel cell growth screen; assay type: cell-based, human; conditions: NCI-H23 (NSCLC)
SNB-75 = assay: NCI-60 panel cell growth screen; assay type: cell-based, human; conditions: SNB-75 (CNS Cancer)
ERBB4 = ERBB4 (Homo sapiens, UniProt Q15303); assay: Kinase inhibitory profile; assay type: biochemical; conditions: Other Clinically-relevant Kinases; 10-point concentration assays
Chain of ERBB4 (Q15303 26-1308): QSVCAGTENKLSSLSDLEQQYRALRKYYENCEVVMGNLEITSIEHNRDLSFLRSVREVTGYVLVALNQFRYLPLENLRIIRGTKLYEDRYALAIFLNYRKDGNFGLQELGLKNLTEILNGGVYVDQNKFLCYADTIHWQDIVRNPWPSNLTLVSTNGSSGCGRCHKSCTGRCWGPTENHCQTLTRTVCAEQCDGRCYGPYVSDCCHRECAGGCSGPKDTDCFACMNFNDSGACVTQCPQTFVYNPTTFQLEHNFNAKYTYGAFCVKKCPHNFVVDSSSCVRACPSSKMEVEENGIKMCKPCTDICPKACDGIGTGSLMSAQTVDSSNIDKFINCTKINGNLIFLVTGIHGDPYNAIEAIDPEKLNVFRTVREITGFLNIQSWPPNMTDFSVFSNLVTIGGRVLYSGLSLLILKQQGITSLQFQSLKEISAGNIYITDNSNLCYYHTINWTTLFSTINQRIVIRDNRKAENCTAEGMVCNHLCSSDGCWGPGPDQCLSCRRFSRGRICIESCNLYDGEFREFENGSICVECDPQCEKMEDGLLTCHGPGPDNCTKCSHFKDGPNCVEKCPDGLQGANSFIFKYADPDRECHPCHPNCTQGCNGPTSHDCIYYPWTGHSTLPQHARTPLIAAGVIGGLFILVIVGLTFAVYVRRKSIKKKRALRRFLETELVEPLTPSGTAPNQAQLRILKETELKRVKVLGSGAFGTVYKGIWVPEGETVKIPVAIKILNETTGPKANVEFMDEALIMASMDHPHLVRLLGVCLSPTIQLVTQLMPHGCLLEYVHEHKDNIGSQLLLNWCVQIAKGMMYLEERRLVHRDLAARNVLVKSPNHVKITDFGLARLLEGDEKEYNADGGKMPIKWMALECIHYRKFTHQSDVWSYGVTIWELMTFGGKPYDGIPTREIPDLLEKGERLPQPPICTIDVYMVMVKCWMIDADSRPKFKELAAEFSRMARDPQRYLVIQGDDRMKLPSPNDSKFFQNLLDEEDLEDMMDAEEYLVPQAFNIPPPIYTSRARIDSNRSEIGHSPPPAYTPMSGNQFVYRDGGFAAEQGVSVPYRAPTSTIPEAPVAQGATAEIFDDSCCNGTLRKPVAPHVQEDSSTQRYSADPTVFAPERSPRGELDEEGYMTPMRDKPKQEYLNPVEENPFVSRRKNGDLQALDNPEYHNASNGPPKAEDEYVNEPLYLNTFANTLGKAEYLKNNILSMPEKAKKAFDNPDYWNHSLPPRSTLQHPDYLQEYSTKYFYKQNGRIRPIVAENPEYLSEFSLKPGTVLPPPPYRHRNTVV

PDGFR = assay: Kinase inhibitory profile; assay type: biochemical; conditions: Other Clinically-relevant Kinases; 10-point concentration assays
[2] = read-out: LC50 (the source's name)

## N-[4-hydroxy-3-(8-quinolinylthio)-1-naphthyl]benzenesulfonamide [DT97]
SF-539
  GI50: 0.957 µM
  TGI: 5.13E-6
SF-539; log concentration −4.0
  Percent Growth: −86%
SF-539; log concentration −5.0
  Percent Growth: −20%
SF-539; log concentration −6.0
  Percent Growth: 49%
SF-539; log concentration −7.0
  Percent Growth: 98%
SF-539; log concentration −8.0
  Percent Growth: 93%
SF-539; [2]
  CC50: 28.5 µM
[1]
  IC50: ~0.45 µM
SF-295
  GI50: 2.84 µM
  TGI: 1.50E-5
SF-295; log concentration −4.0
  Percent Growth: −78%
SF-295; log concentration −5.0
  Percent Growth: 17%
SF-295; log concentration −6.0
  Percent Growth: 78%
SF-295; log concentration −7.0
  Percent Growth: 94%
SF-295; log concentration −8.0
  Percent Growth: 92%
SF-295; [2]
  CC50: 50.7 µM
U25
  GI50: 0.78 µM
  TGI: 2.42E-5
U25; log concentration −4.0
  Percent Growth: −13%
U25; log concentration −5.0
  Percent Growth: 8%
U25; log concentration −6.0
  Percent Growth: 43%
U25; log concentration −7.0
  Percent Growth: 107%
U25; log concentration −8.0
  Percent Growth: 103%
U25; [2]
  CC50: > 100 µM
SW-620
  GI50: 1.04 µM
  TGI: 1.16E-5
SW-620; log concentration −4.0
  Percent Growth: −49%
SW-620; log concentration −5.0
  Percent Growth: 3%
SW-620; log concentration −6.0
  Percent Growth: 51%
SW-620; log concentration −7.0
  Percent Growth: 88%
SW-620; log concentration −8.0
  Percent Growth: 94%
SW-620; [2]
  CC50: > 100 µM
HCT-116
  GI50: 0.555 µM
  TGI: 2.80E-6
HCT-116; log concentration −4.0
  Percent Growth: −92%
HCT-116; log concentration −5.0
  Percent Growth: −43%
HCT-116; log concentration −6.0
  Percent Growth: 34%
HCT-116; log concentration −7.0
  Percent Growth: 95%
HCT-116; log concentration −8.0
  Percent Growth: 98%
HCT-116; [2]
  CC50: 14.1 µM
NCI-H23
  GI50: 1.93 µM
  TGI: 1.28E-5
NCI-H23; log concentration −4.0
  Percent Growth: −58%
NCI-H23; log concentration −5.0
  Percent Growth: 7%
NCI-H23; log concentration −6.0
  Percent Growth: 67%
NCI-H23; log concentration −7.0
  Percent Growth: 102%
NCI-H23; log concentration −8.0
  Percent Growth: 98%
NCI-H23; [2]
  CC50: 75.9 µM
SNB-75
  GI50: 3.23 µM
  TGI: 1.69E-5
SNB-75; log concentration −4.0
  Percent Growth: −100%
SNB-75; log concentration −5.0
  Percent Growth: 29%
SNB-75; log concentration −6.0
  Percent Growth: 75%
SNB-75; log concentration −7.0
  Percent Growth: 73%
SNB-75; log concentration −8.0
  Percent Growth: 76%
SNB-75; [2]
  CC50: 41.2 µM
ERBB4
  Inhibitory profile (kinase inhibition): +
PDGFR
  Inhibitory profile (kinase inhibition): none
